Assay: In vitro metabolism, mouse liver microsomes
Assay type: in vitro ADME
Experimental: Stock solution of KM-568 was prepared in methanol. Mouse liver microsomes (Sigma–Aldrich, Darmstadt, Germany) were carefully thawed on ice before the experiment. A compound tested at concentration 20 μM was preincubated with mouse liver microsomes (0.4 mg/mL) in 100 mM potassium-phosphate buffer (pH 7.4) for 15 min at 37 °C. The biotransformation reaction was started with the addition of NADPH-regenerating system (NADP^+, glucose-6-phosphate, 0.7 U/mL glucose-6-phosphate dehydrogenase in 100 mM potassium-phosphate buffer) (Sigma–Aldrich, Darmstadt, Germany) and the mixture was incubated at 37 °C. Experiments were carried out 30 and 60 min at 37 °C, in duplicates. Negative control without NADPH-regenerating system was also conducted. Biotransformation was stopped by adding cooled 70% perchloric acid. Next, an internal standard (pentoxifylline) was added and samples were centrifuged at 9000 rpm for 10 min at 4 °C. The supernatant was analyzed by means of LC/MS. In vitro half time (t1/2) was established from the slope of the compound depletion curve. Intrinsic clearance (Clint) was obtained from the equation Clint = (volume of incubation [µl]/protein in the incubation [mg]) × 0.693/t1/2 [58, 59].

For C[C@H](O)CNC(=O)/C=C/c1ccccc1 [KM-568, S(+)-(2E)-N-(2-hydroxypropyl)-3-phenylprop-2-enamide], the compound remained unchanged (after 60 min of incubation with microsomes) was 72.37%, the metabolic stability qualification (mouse liver microsomes) was “moderate metabolically stable” and the half-life at 20 μM (pH 7.4, mouse liver microsomes, 20 μM, read-out: half-life time (t1/2)) was 2.14 h. The microsomal CLint at 20 μM (pH 7.4, mouse liver microsomes, 20 μM, read-out: internal clearance (Clint)) was 13.5 µL/min/mg.

Reference: publication PMC7352759, “S(+)-(2E)-N-(2-Hydroxypropyl)-3-Phenylprop-2-Enamide (KM-568): A Novel Cinnamamide Derivative with Anticonvulsant Activity in Animal Models of Seizures and Epilepsy” (International Journal of Molecular Sciences, 2020)
